Reference: patent publication US20240018161A1, “MODULATORS OF CYSTIC FIBROSIS TRANSMEMBRANE CONDUCTANCE REGULATOR” (VERTEX PHARMACEUTICALS INCORPORATED, priority 2020, published 2024)

Assays:
[1] = target: T1, CFTR-mediated chloride transport in human intestinal epithelial enteroid cells (Homo sapiens, UniProt P13569); test: Membrane potential dye, Enteroid Assay B; assay type: cell-based; conditions: Enteroid Assay B; for EC50: read-out: Ent. B EC50
Method: Base medium (ADF+++) consisted of Advanced DMEM/Ham's F12, 2 mM Glutamax, 10 mM HEPES, […] penicillin/streptomycin.
Bath 1 Buffer consisted of 1 mM MgCl2, 160 mM NaCl, 4.5 mM KCl, 10 mM HEPES, 10 mM Glucose, 2 mM CaCl2.
Chloride Free Buffer consisted of 1 mM Magnesium Gluconate, 2 mM Calcium Gluconate, 4.5 mM Potassium Gluconate, 160 mM Sodium Gluconate, 10 mM HEPES, 10 mM Glucose.
Bath1 Dye Solution consisted of Bath 1 Buffer, 0.04% Pluronic F127, 20 μM Methyl Oxonol, 30 μM CaCCinh-A01, 30 μM Chicago Sky Blue.
Chloride Free Dye Solution consisted of Chloride Free Buffer, 0.04% Pluronic F127, 20 μM Methyl Oxonol, 30 μM CaCCinh-A01, 30 μM Chicago Sky Blue.
3. Enteroid Cell Harvesting and Seeding
Cells were recovered in cell recovery solution, collected by centrifugation at 650 rpm for 5 min at 4° C., resuspended in TryPLE and incubated for 5 min at 37° C. Cells were then collected by centrifugation at 650 rpm for 5 min at 4° C. and resuspended in IEMM containing 10 μM ROCK inhibitor (RI).
5. Membrane Potential Dye, Enteroid Assay B
Briefly, cells were washed 5 times in Bath 1 Buffer. Bath 1 Dye Solution was added and the cells were incubated for 25 min at room temperature. Following dye incubation, cells were washed 3 times in Chloride Free Dye Solution. Chloride transport was initiated by addition of Chloride Free Dye Stimulation Solution and the fluorescence signal was read for 15 min.

[2] = target: T1, CFTR-mediated chloride transport in human intestinal epithelial enteroid cells; test: Membrane potential dye, Enteroid Assay A; assay type: cell-based; conditions: for EC50: read-out: Ent. A EC50
Summary of the method: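 Membrane potential dye (20 μM methyl oxonol, with 30 μM CaCCinh-A01 and 30 μM Chicago Sky Blue) loaded 25 min at room temperature into ROCK-inhibitor-seeded human enteroid cells. Chloride-free stimulation buffer triggered transport, followed by 15 min fluorescence. % Activity relative to 3 μM/3 μM/300 nM triple-combination control.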

[3] = percentage of chloride transport of triple combination control (3 μM N-[(6-amino-2-pyridyl)sulfonyl]-6-(3-fluoro-5-isobutoxy-phenyl)-2-[(4S)-2,2,4-trimethylpyrrolidin-1-yl]pyridine-3-carboxamide based)
[4] = enteroid cells incubated with test compound 18-24 hours, acute 10 μM forskolin and 300 nM N-[2,4-bis(1,1-dimethylethyl)-5-hydroxyphenyl]-1,4-dihydro-4-oxoquinoline-3-carboxamide

T1 sequence (P13569 with tags, fused parts or gaps DEL508-508): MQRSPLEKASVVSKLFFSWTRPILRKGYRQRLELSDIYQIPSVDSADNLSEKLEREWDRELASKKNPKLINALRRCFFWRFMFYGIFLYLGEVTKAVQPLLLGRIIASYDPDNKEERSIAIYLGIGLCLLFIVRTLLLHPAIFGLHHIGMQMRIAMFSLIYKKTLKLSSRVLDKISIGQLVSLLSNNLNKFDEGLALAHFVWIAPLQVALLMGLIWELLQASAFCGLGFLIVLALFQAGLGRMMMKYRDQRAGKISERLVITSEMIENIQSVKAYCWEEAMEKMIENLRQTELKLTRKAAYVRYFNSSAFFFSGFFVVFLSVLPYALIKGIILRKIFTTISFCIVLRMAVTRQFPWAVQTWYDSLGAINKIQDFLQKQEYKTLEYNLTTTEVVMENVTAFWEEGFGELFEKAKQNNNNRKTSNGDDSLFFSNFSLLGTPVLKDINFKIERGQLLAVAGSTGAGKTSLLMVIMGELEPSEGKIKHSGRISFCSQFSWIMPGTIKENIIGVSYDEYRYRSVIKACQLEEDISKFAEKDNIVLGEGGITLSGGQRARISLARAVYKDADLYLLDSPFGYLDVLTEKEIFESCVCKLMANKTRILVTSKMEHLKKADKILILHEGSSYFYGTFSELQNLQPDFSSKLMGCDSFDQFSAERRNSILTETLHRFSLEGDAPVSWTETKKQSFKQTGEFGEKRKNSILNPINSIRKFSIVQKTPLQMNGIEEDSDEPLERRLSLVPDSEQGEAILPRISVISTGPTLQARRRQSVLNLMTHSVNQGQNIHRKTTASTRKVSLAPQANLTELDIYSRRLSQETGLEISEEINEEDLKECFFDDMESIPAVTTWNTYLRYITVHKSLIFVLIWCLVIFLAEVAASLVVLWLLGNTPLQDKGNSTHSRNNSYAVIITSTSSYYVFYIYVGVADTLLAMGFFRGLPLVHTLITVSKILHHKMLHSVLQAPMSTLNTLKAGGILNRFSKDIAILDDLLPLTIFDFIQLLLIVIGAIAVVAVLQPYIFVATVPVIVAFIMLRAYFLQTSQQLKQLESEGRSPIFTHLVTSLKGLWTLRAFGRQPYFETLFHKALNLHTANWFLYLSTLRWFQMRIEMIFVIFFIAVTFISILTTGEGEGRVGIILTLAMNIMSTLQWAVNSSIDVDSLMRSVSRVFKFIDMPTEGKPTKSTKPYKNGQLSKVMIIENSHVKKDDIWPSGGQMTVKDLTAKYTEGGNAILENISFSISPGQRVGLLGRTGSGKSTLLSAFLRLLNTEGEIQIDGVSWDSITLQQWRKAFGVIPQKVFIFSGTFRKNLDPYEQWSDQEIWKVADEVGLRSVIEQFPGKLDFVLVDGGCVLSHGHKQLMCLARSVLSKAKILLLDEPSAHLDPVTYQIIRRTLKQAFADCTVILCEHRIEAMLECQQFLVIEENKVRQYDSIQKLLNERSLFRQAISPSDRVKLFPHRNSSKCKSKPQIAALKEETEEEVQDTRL

Row | SMILES | Ent. A Max Activity (%) [2, 3] | EC50 [2, 4] [µM] | also measured
1 | Cc1cccc(C)c1-c1cc2nc(n1)NS(=O)(=O)c1cccc(c1)C(=O)N1C[C@@H](CN(C(=O)OC(C)(C)C)C[C@@H]1CCO)O2 (single isomer, unassigned) [Compound 137, tert-butyl 12-(2,6-dimethylphenyl)-20-(2-hydroxyethyl)-2,8,8-trioxo-15-oxa-8λ^6-thia-1,9,11,18,22-pentaazatetracyclo[14.4.1.13,7.110,14]tricosa-3(23),4,6,10(22),11,13-hexaene-18-carboxylate] | – | – | Ent. B Max Activity (%) [1]: +++ (+++ is >600%); EC50 [1]: 1000 to 3000 nM
2 | Cc1cccc(C)c1-c1cc2nc(n1)NS(=O)(=O)c1cccc(c1)C(=O)N1C[C@@H](CCC[C@@H]1CC(C)C)O2 (single isomer, unassigned) [Compound 179] | – | – | Ent. B Max Activity (%) [1]: + (+ is <30%)
3 | Cc1cccc(C)c1-c1cc2nc(n1)NS(=O)(=O)c1cccc(c1)C(=O)N1C[C@@H](CCC[C@@H]1CC(C)C)O2 (single isomer, unassigned) [Compound 180] | – | – | Ent. B Max Activity (%) [1]: ++ (++ is 30-60%); EC50 [1]: < 1000 nM
4 | Cc1cccc(C)c1-c1cc2nc(n1)NS(=O)(=O)c1cccc(c1)C(=O)N1C[C@H](O2)c2ccccc2[C@@H]1CC(C)C (single isomer, unassigned) [Compound 190, 12-(2,6-Dimethylphenyl)-23-(2-methylpropyl)-15-oxa-8λ^6-thia-1,9,11,25-tetraazapentacyclo[14.7.1.13,7.110,14.017,22]hexacosa-3(26),4,6,10(25),11,13,17,19,21-nonaene-2,8,8-trione] | – | – | Ent. B Max Activity (%) [1]: ++ (++ is 30-60%); EC50 [1]: < 1000 nM
5 | Cc1cccc(C)c1-c1cc2nc(n1)NS(=O)(=O)c1cccc(c1)C(=O)N1C[C@H](O2)c2ccccc2[C@@H]1CC(C)C (single isomer, unassigned) [Compound 191, 12-(2,6-Dimethylphenyl)-23-(2-methylpropyl)-15-oxa-8λ^6-thia-1,9,11,25-tetraazapentacyclo[14.7.1.13,7.110,14.017,22]hexacosa-3(26),4,6,10(25),11,13,17,19,21-nonaene-2,8,8-trione] | – | – | Ent. B Max Activity (%) [1]: ++ (++ is 30-60%); EC50 [1]: < 1000 nM
6 | Cc1cccc(C)c1-c1cc2nc(n1)NS(=O)(=O)c1cccc(c1)C(=O)N1Cc3cc(C(C)(C)C)ccc3C(CO2)C1C (single isomer, unassigned) [Compound 218, 21-tert-Butyl-12-(2,6-dimethylphenyl)-25-methyl-15-oxa-8λ^6-thia-1,9,11,26-tetraazapentacyclo[15.7.1.13,7.110,14.018,23]heptacosa-3,5,7(27),10,12,14(26),18,20,22-nonaene-2,8,8-trione] | – | – | Ent. B Max Activity (%) [1]: + (+ is <30%)
7 | Cc1cccc(C)c1-c1cc2nc(n1)NS(=O)(=O)c1cccc(c1)C(=O)N1CCC[C@H](C1)O2 [Compound 336] | + (+ is <300%) | – | –
8 | CC(C)CCc1ccccc1-c1cc2nc(n1)NS(=O)(=O)c1cccc(c1)C(=O)N1Cc3ccccc3C(C1)O2 (stereo not shown) [Compound 337] | ++ (++ is 30-60%) | < 1 | –
9 | CC(C)Oc1cccc(-c2cc3nc(n2)NS(=O)(=O)c2cccc(c2)C(=O)N2Cc4ccccc4C(C2)O3)c1 (stereo not shown) [Compound 338] | + (+ is <300%) | – | –
10 | Cc1cccc(C)c1-c1cc2nc(n1)NS(=O)(=O)c1cc(n(C)n1)C(=O)N1Cc3ccccc3[C@H](C1)O2 [Compound 340] | + (+ is <300%) | 3 to 30 | –
11 | Cc1cccc(C)c1-c1cc2nc(n1)NS(=O)(=O)c1cc(n(C)n1)C(=O)N1Cc3ccccc3[C@H](C1)O2 [Compound 341] | ++ (++ is 30-60%) | 3 to 30 | –
12 | Cc1cccc(C)c1-c1cc2nc(n1)NS(=O)(=O)c1cc(ccn1)C(=O)N1Cc3ccccc3C(C1)O2 (stereo not shown) [Compound 343] | ++ (++ is 30-60%) | 1 to 3 | –
13 | Cc1cccc(C)c1-c1cc2nc(n1)NS(=O)(=O)c1cccc(c1)CN1CC(COCC(C)(C)C)CC(C1)O2 (stereo not shown) [Compound 344] | ++ (++ is 30-60%) | < 1 | –
14 | Cc1cccc(C)c1-c1cc2nc(n1)NS(=O)(=O)c1cccc(c1)CCC(=O)N1Cc3ccccc3C(C1)O2 (stereo not shown) [Compound 345] | + (+ is <300%) | – | –
15 | Cc1cccc(C)c1-c1cc2nc(n1)NS(=O)(=O)c1cnn(c1)CCC(=O)N1Cc3ccccc3C(C1)O2 (stereo not shown) [Compound 346] | + (+ is <300%) | – | –
16 | Cc1cccc(C)c1-c1cc2nc(n1)NS(=O)(=O)c1cnn(c1)CC(=O)N1Cc3ccccc3C(C1)O2 (stereo not shown) [Compound 347] | + (+ is <300%) | – | –
17 | Cc1cccc(C)c1-c1cc2nc(n1)NS(=O)(=O)c1cc(n(C)c1)CC(=O)N1Cc3ccccc3C(C1)O2 (stereo not shown) [Compound 348] | ++ (++ is 30-60%) | 1 to 3 | –
18 | Cc1cccc(C)c1-c1cc2nc(n1)NS(=O)(=O)c1cccc(c1)CCC(=O)N1CCC(CC1)O2 [Compound 352] | + (+ is <300%) | – | –

Row | SMILES | Ent. A Max Activity (%) [2, 3] | EC50 [2, 4] [µM] | also measured
19 | Cc1cccc(C)c1-c1cc2nc(n1)NS(=O)(=O)c1cccc(c1)CCC(=O)N1CCCC(C1)O2 (stereo not shown) [Compound 353] | + (+ is <300%) | – | –
20 | Cc1cccc(C)c1-c1cc2nc(n1)NS(=O)(=O)c1cnn(c1)CC(=O)N1CCCC(C1)O2 (stereo not shown) [Compound 354] | + (+ is <300%) | – | –
21 | Cc1cccc(C)c1-c1cc2nc(n1)NS(=O)(=O)c1cccc(c1)C(=O)N1CCC(CCCO2)C1 (stereo not shown) [Compound 355] | – | – | Ent. A Max Activity (%) ([2]; Enteroid Assay A): ++ (++ is 30-60%); EC50 ([2]; Enteroid Assay A): 3 to 30 µM
22 | Cc1cccc(C)c1-c1cc2nc(n1)NS(=O)(=O)c1cccc(c1)C(=O)N1CC(CCCO2)CC1(C)C (stereo not shown) [Compound 356] | – | – | Ent. A Max Activity (%) ([2]; Enteroid Assay A): ++ (++ is 30-60%); EC50 ([2]; Enteroid Assay A): 3 to 30 µM
23 | Cc1cccc(C)c1-c1cc2nc(n1)NS(=O)(=O)c1cccc(c1)C(=O)N1CCCN(CCCC3(C(F)(F)F)CC3)CC(C1)O2 (stereo not shown) [Compound 357] | – | – | Ent. A Max Activity (%) ([2]; Enteroid Assay A): ++ (++ is 30-60%); EC50 ([2]; Enteroid Assay A): < 1 µM
24 | Cc1cccc(C)c1-c1cc2nc(n1)NS(=O)(=O)c1cccc(c1)C(=O)N1CCCN(CCC3(C(F)(F)F)CC3)CC(C1)O2 (stereo not shown) [Compound 358] | – | – | Ent. A Max Activity (%) ([2]; Enteroid Assay A): ++ (++ is 30-60%); EC50 ([2]; Enteroid Assay A): < 1 µM
25 | Cc1cccc(C)c1-c1cc2nc(n1)NS(=O)(=O)c1cccc(c1)C(=O)N1CCCN(C(=O)OC(C)(C)C)CC(C1)O2 (stereo not shown) [Compound 359] | – | – | Ent. A Max Activity (%) ([2]; Enteroid Assay A): ++ (++ is 30-60%); EC50 ([2]; Enteroid Assay A): 1 to 3 µM
26 | Cc1cccc(C)c1-c1cc2nc(n1)NS(=O)(=O)c1cncc(c1)C(=O)N1Cc3ccccc3[C@@H](C1)O2 [Compound 360] | + (+ is <300%) | – | –
27 | Cc1cccc(C)c1-c1cc2nc(n1)NS(=O)(=O)c1cncc(c1)C(=O)N1Cc3ccccc3[C@H](C1)O2 [Compound 361] | + (+ is <300%) | – | –
28 | Cc1cccc(C)c1-c1cc2nc(n1)NS(=O)(=O)c1cccc(c1)C(=O)N1CC(CC(C)(C)C1)O2 (stereo not shown) [Compound 362] | – | – | Ent. A Max Activity (%) ([2]; Enteroid Assay A): ++ (++ is 30-60%); EC50 ([2]; Enteroid Assay A): < 1 µM
29 | Cc1cccc(C)c1-c1cc2nc(n1)NS(=O)(=O)c1cccc(c1)C(=O)N1C[C@H]3C[C@@H]1[C@@H](C3)O2 [Compound 363] | +++ (+++ is >60%) | 3 to 30 | –
30 | Cc1cccc(C)c1-c1cc2nc(n1)NS(=O)(=O)c1cccc(c1)C(=O)N1C[C@H]3C[C@@H]1[C@@H](C3)O2 [Compound 364] | ++ (++ is 30-60%) | – | –
31 | Cc1cccc(C)c1-c1cc2nc(n1)NS(=O)(=O)c1cccc(c1)C(=O)N1CC3CC(O2)C1C3 (stereo not shown) [Compound 365] | ++ (++ is 30-60%) | 3 to 30 | –
32 | Cc1cccc(C)c1-c1cc2nc(n1)NS(=O)(=O)c1cccc(c1)C(=O)N1CCOC[C@@H]1CO2 [Compound 366] | ++ (++ is 30-60%) | 3 to 30 | –
33 | Cc1cccc(C)c1-c1cc2nc(n1)NS(=O)(=O)c1cccc(c1)C(=O)N1CCC[C@@H]1CO2 [Compound 367] | +++ (+++ is >60%) | 3 to 30 | –
34 | Cc1cccc(C)c1-c1cc2nc(n1)NS(=O)(=O)c1cccc(c1)C(=O)N1CC(C)(C)CC1CO2 (stereo not shown) [Compound 368] | ++ (++ is 30-60%) | 1 to 3 | –
35 | Cc1cccc(C)c1-c1cc2nc(n1)NS(=O)(=O)c1cccc(c1)C(=O)N1CCCCC(C1)O2 (stereo not shown) [Compound 369] | + (+ is <300%) | – | –
36 | Cc1cccc(C)c1-c1cc2nc(n1)NS(=O)(=O)c1cccc(c1)C(=O)N1CCC3(CC3)C(C1)O2 (stereo not shown) [Compound 370] | +++ (+++ is >60%) | < 1 | –
